# Assay results published in patent US10093623B2, “Cyclic amides as MetAP-2 inhibitors” (MERCK PATENT GmbH, priority 2012, dated 2018).
# Molecular target: MetAP-2 (Homo sapiens, UniProt P50579)
# Assay: MetAP-2 activity measurement (coupled enzymatic reactions, Met-Arg-Ser substrate, dianisidine detection at 450 nm)
# Type: biochemical
# Details: Inhibition of MetAP-2; read-out: IC50 enzyme
# Procedure: MetAP-2 Activity Measurement
# The MetAP-2 activity is determined by coupling enzymatic reactions. The tripeptide Met-Arg-Ser (MAS) is employed as substrate. The methionine liberated is firstly converted into Metox and H2O2 by L-aminooxidase (AAO). In the second step, the peroxidase (POD) with the aid of the H2O2 catalyses the oxidation of the leukodye dianisidine to dianisidineox, the increase of which is detected photometrically at 450 nm.
# MetAP-2 activity can be recorded continuously as kinetics. The reaction scheme illustrates that one mol of dianisidineox is formed per mol of methionene. The MetAP-2 enzyme activity can therefore be calculated directly as A absorption per time unit. Qualification of the MetAP-2 activity (mol of Met/time unit) is possible with the aid of the dianisidineox extinction coefficient.
# The change in extinction per time unit is depicted graphically and a slope calculation is carried out in the visually linear region of the reaction.
# Sequence of MetAP-2 (P50579 whole entry, species assumed): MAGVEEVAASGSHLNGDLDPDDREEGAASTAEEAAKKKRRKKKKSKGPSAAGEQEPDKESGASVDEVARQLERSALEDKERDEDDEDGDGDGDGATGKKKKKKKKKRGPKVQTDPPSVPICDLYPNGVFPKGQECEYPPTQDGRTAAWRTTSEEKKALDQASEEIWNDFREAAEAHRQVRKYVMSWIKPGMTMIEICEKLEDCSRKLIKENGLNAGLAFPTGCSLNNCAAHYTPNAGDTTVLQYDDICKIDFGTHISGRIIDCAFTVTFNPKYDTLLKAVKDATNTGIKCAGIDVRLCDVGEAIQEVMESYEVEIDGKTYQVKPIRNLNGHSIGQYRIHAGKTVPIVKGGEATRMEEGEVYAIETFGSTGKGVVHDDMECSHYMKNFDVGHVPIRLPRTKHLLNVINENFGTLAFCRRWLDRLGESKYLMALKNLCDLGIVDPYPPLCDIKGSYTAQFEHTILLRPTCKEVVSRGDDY
row,IC50 [µM],SMILES
1,> 10,"O=C(N1CCN(CCO)CC1)[C@@]1(O)CCN(c2ccccc2)C1=O [A57, (S)-3-Hydroxy-3-[4-(2-hydroxy-ethyl)piperazine-1-carbonyl]-1-phenylpyrrolidin-2-one]"
2,> 10,"O=C(NCCCn1ccnc1)[C@@]1(O)CCN(c2ccccc2)C1=O [A58, N-(3-Imidazol-1-ylpropyl)-(S)-3-hydroxy-2-oxo-1-phenylpyrrolidine-3-carboxamide]"
3,> 10,"CN(C)CCNC(=O)[C@@]1(O)CCN(c2ccccc2)C1=O [A59, N-(2-Dimethylaminoethyl)-(S)-3-hydroxy-2-oxo-1-phenylpyrrolidine-3-carboxamide]"
4,> 10,"O=C(NCCc1ccc(Oc2ccccc2)cc1)[C@@]1(O)CCN(c2ccccc2)C1=O [A60, N-[2-(4-Phenoxyphenyl)ethyl]-(S)-3-hydroxy-2-oxo-1-phenyl-pyrrolidine-3-carboxamide]"
5,> 10,CN(C)CCN(C)C(=O)[C@@]1(O)CCN(c2ccccc2)C1=O [A61]
6,> 10,"O=C(CNC(=O)[C@@]1(O)CCN(c2ccccc2)C1=O)N1CCOCC1 [A62, N-(2-Morpholin-4-yl-2-oxoethyl)-(S)-3-hydroxy-2-oxo-1-phenyl-pyrrolidine-3-carboxamide]"
7,> 10,"CN1CCCC1CCNC(=O)[C@@]1(O)CCN(c2ccccc2)C1=O (stereo partly drawn) [A63, N-[2-(1-Methylpyrrolidin-2-yl)ethyl]-(S)-3-hydroxy-2-oxo-1-phenyl-pyrrolidine-3-carboxamide]"
8,> 10,"CN(C)CCCNC(=O)[C@@]1(O)CCN(c2ccccc2)C1=O [A64, N-(3-Dimethylaminopropyl)-(S)-3-hydroxy-2-oxo-1-phenylpyrrolidine-3-carboxamide]"
9,0.01 to 1,"O=C(NCc1cc(F)cc(Cl)c1)C1(O)CCCN(c2ccccc2)C1=O (stereo not shown) [A65, N-(3-Chloro-5-fluorobenzyl)-3-hydroxy-2-oxo-1-phenylpiperidine-3-carboxamide]"
10,1 to 10,"O=C(NCc1cc(F)cc(Cl)c1)[C@@]1(O)CCCCN(c2ccccc2)C1=O [A66, N-(3-chloro-5-fluorobenzyl)-(S)-3-hydroxy-2-oxo-1-phenylazepane-3-carboxamide]"
11,> 10,"O=C(NCc1cc(F)cc(Cl)c1)[C@]1(O)CCCCN(c2ccccc2)C1=O [A67, N-(3-chloro-5-fluorobenzyl)-(R)-3-hydroxy-2-oxo-1-phenylazepane-3-carboxamide]"
12,0.01 to 1,"O=C(NCc1cc(F)cc(Cl)c1)C1(O)CCN(c2ccc3cc[nH]c3c2)C1=O (stereo not shown) [A68, N-(3-Chloro-5-fluorobenzyl)-3-hydroxy-1-(1H-indol-6-yl)-2-oxo-pyrrolidine-3-carboxamide]"
13,0.01 to 1,"NC(=O)c1cccc(NC(=O)c2cccc(N3CCC(O)(C(=O)NCc4cc(F)cc(Cl)c4)C3=O)c2)c1 (stereo not shown) [A69, N-(3-Chloro-5-fluorobenzyl)-1-[3-(3-carbamoylphenylcarbamoyl)-phenyl]-3-hydroxy-2-oxo-pyrrolidine-3-carboxamide]"
14,> 10,"C/C=C/C(=O)[C@@]1(O)CCN(c2ccccc2)C1=O [A70, (S)-3-((E)-but-2-enoyl)-3-hydroxy-1-phenylpyrrolidin-2-one]"
15,> 10,"CC(=O)N1CCC2(CC1)CN(c1ccccc1)C(=O)[C@@]2(O)C(=O)NCc1cc(F)cc(Cl)c1 [A71, N-(3-Chloro-5-fluorobenzyl)-(S)-8-acetyl-4-hydroxy-3-oxo-2-phenyl-2,8-diazaspiro[4.5]decane-4-carboxamide]"
16,0.01 to 1,"O=C(c1cccc(N2CC[C@](O)(C(=O)NCc3cc(F)cc(Cl)c3)C2=O)c1)N1CCOCC1 [A72, N-(3-Chloro-5-fluorobenzyl)-(S)-3-hydroxy-1-[3-(morpholine-4-carbonyl)phenyl]-2-oxopyrrolidine-3-carboxamide]"
17,0.01 to 1,"CN(c1cccc(N2CCC(O)(C(=O)NCc3cc(F)cc(Cl)c3)C2=O)c1)S(C)(=O)=O (stereo not shown) [A73, N-(3-Chloro-5-fluorobenzyl)-3-hydroxy-1-[3-(methanesulfonyl-methylamino)phenyl]-2-oxo-pyrrolidine-3-carboxamide]"
18,> 10,"O=C(c1cccc(N2CC[C@@](O)(C(=O)NCc3cc(F)cc(Cl)c3)C2=O)c1)N1CCOCC1 [A74, N-(3-Chloro-5-fluorobenzyl)-(R)-3-hydroxy-1-[3-(morpholine-4-carbonyl)phenyl]-2-oxopyrrolidine-3-carboxamide]"
19,0.01 to 1,"O=C(NC1CC1)c1cccc(N2CC[C@](O)(C(=O)NCc3cc(F)cc(Cl)c3)C2=O)c1 [A75, N-(3-Chloro-5-fluorobenzyl)-(S)-1-(3-cyclopropylcarbamoylphenyl)-3-hydroxy-2-oxopyrrolidine-3-carboxamide]"

row,IC50 [µM],SMILES
1,0.01 to 1,"O=C(NC1CCC1)c1cccc(N2CCC(O)(C(=O)NCc3cc(F)cc(Cl)c3)C2=O)c1 (stereo not shown) [A76, N-(3-Chloro-5-fluorobenzyl)-1-(3-cyclobutylcarbamoylphenyl)-3-hydroxy-2-oxopyrrolidine-3-carboxamide]"
2,0.01 to 1,"O=C(c1cccc(N2CC[C@](O)(C(=O)NCc3cc(F)cc(Cl)c3)C2=O)c1)N1CCCC1 [A77, N-(3-Chloro-5-fluorobenzyl)-(S)-3-hydroxy-2-oxo-1-[3-(pyrrolidine-1-carbonyl)phenyl]pyrrolidine-3-carboxamide]"
3,0.01 to 1,"CCC(=O)Nc1ccc(N2CCC(O)(C(=O)NCc3cc(F)cc(Cl)c3)C2=O)cn1 (stereo not shown) [A78, N-(3-Chloro-5-fluorobenzyl)-3-hydroxy-2-oxo-1-(6-propionylaminopyridin-3-yl)-pyrrolidine-3-carboxamide]"
4,0.01 to 1,"CCS(=O)(=O)Nc1cccc(N2CC[C@](O)(C(=O)NCc3cc(F)cc(Cl)c3)C2=O)c1 [A79, N-(3-Chloro-5-fluorobenzyl)-(S)-1-(3-ethanesulfonylaminophenyl)-3-hydroxy-2-oxopyrrolidine-3-carboxamide]"
5,0.01 to 1,"O=C(NCc1cc(F)cc(Cl)c1)[C@@]1(O)CCN(c2cccc(NS(=O)(=O)C3CC3)c2)C1=O [A80, N-(3-Chloro-5-fluorobenzyl)-(S)-1-(3-cyclopropanesulfonylamino-phenyl)-3-hydroxy-2-oxo-pyrrolidine-3-carboxamide]"
6,0.01 to 1,"O=C(NCc1cc(F)cc(Cl)c1)[C@@]1(O)CCCN(Cc2ccccc2)C1=O [A81, N-(3-Chloro-5-fluorobenzyl)-(S)-1-benzyl-3-hydroxy-2-oxopiperidine-3-carboxamide]"
7,1 to 10,"O=C(NC1CC1)c1cccc(N2CC[C@@](O)(C(=O)NCc3cc(F)cc(Cl)c3)C2=O)c1 [A82, N-(3-Chloro-5-fluorobenzyl)-(R)-1-(3-cyclopropylcarbamoylphenyl)-3-hydroxy-2-oxopyrrolidine-3-carboxamide]"
8,> 10,"O=C(c1cccc(N2CC[C@@](O)(C(=O)NCc3cc(F)cc(Cl)c3)C2=O)c1)N1CCCC1 [A83, N-(3-Chloro-5-fluorobenzyl)-(R)-3-hydroxy-2-oxo-1-[3-(pyrrolidine-1-carbonyl)phenyl]pyrrolidine-3-carboxamide]"
9,1 to 10,"CCS(=O)(=O)Nc1cccc(N2CC[C@@](O)(C(=O)NCc3cc(F)cc(Cl)c3)C2=O)c1 [A84, N-(3-Chloro-5-fluorobenzyl)-(R)-1-(3-ethanesulfonylaminophenyl)-3-hydroxy-2-oxopyrrolidine-3-carboxamide]"
10,> 10,"O=C(NCc1cc(F)cc(Cl)c1)[C@]1(O)CCN(c2cccc(NS(=O)(=O)C3CC3)c2)C1=O [A85, N-(3-Chloro-5-fluorobenzyl)-(R)-1-(3-cyclopropanesulfonylamino-phenyl)-3-hydroxy-2-oxo-pyrrolidine-3-carboxamidee]"
11,> 10,"O=C(NCc1cc(F)cc(Cl)c1)[C@]1(O)CCCN(Cc2ccccc2)C1=O [A86, N-(3-Chloro-5-fluorobenzyl)-(R)-1-benzyl-3-hydroxy-2-oxo-piperidine-3-carboxamide]"
12,0.01 to 1,"N#Cc1c[nH]c2ccc(N3CCC(O)(C(=O)NCc4cc(F)cc(Cl)c4)C3=O)cc12 (stereo not shown) [A87, N-(3-Chloro-5-fluorobenzyl)-1-(3-cyano-1H-indol-5-yl)-3-hydroxy-2-oxopyrrolidine-3-carboxamide]"
13,0.01 to 1,"O=C(NCCO)c1cccc(N2CC[C@](O)(C(=O)NCc3cc(F)cc(Cl)c3)C2=O)c1 [A88, N-(3-Chloro-5-fluorobenzyl)-(S)-3-hydroxy-1-[3-(2-hydroxy-ethylcarbamoyl)phenyl]-2-oxo-pyrrolidine-3-carboxamide]"
14,> 10,"C=C(Cc1ccccc1)C(=O)C1(O)CCN(c2ccccc2)C1=O (stereo not shown) [A89, 3-(2-benzylacryloyl)-3-hydroxy-1-phenylpyrrolidin-2-one]"
15,0.01 to 1,"O=C(NCc1cc(F)cc(Cl)c1)[C@@]1(O)CCN(CCc2ccccc2)C1=O [A90, N-(3-Chloro-5-fluorobenzyl)-(S)-3-hydroxy-2-oxo-1-phenethyl-pyrrolidine-3-carboxamide]"
16,> 10,"O=C(NCCO)c1cccc(N2CC[C@@](O)(C(=O)NCc3cc(F)cc(Cl)c3)C2=O)c1 [A91, N-(3-Chloro-5-fluorobenzyl)-(R)-3-hydroxy-1-[3-(2-hydroxy-ethylcarbamoyl)phenyl]-2-oxo-pyrrolidine-3-carboxamide]"
17,1 to 10,"O=C(NCc1cc(F)cc(Cl)c1)[C@]1(O)CCN(CCc2ccccc2)C1=O [A92, N-(3-Chloro-5-fluorobenzyl)-(R)-3-hydroxy-2-oxo-1-phenethyl-pyrrolidine-3-carboxamide]"
18,1 to 10,"CN(CCO)C(=O)c1cccc(N2CC[C@](O)(C(=O)NCc3cc(F)cc(Cl)c3)C2=O)c1 [A93, N-(3-Chloro-5-fluorobenzyl)-(S)-3-hydroxy-1-{3-[(2-hydroxy-ethyl)methylcarbamoyl]phenyl}-2-oxopyrrolidine-3-carboxamide]"
